Patent publication US20130090371A1, “METHODS AND COMPOSITIONS FOR INHIBITION OF BETA2-ADRENERGIC RECEPTOR DEGRADATION” (PRESIDENT AND FELLOWS OF HARVARD COLLEGE, priority 2010, published 2013)
d = 2'-deoxy (DNA); r = 2'-OH (RNA)

How the values were obtained:
[1] = tested on: β2AR; test: qRT-PCR of β2AR mRNA in HASM cells; assay type: cell-based, human; conditions: AAEST siRNA
[2] = tested on: surface β2-AR; test: Surface β2-AR by FACS (α-Flag FITC) after AAEST siRNA; assay type: cell-based, human; conditions: text: HASM cells; legend FIG. 16A: HEK293 cells
[3] = tested on: β2AR; test: Baseline β2AR expression in cells after AAEST knockdown; assay type: cell-based
[4] = tested on: β2AR; test: Immunoblot of β2AR protein in human airway smooth muscle (HASM) cells
Procedure: Error bars represented the standard deviations; Student t-test * p<0.05, n=2. […] Indirect Immunofluorescence staining of β2AR and phase contract images are shown.
Three days after the inhibitor treatment cell lysates were collected and analyzed by immunoblotting. Three repeats were done with similar results.
Immunoblot analysis. 48 h post DNA transfection, cells were wash with PBS and lysed with NP-40 lysing buffer (50 mM Tris-HCl pH7.5, 150 mM NaCl, 0.5% Nonidet P-40) containing protease inhibitor cocktail (Roche). Protein samples were separated on NuPAGE 10% Bis-Tris gels (Invitrogen) and transferred to nitrocellulose membranes (Bio-Rad). Immunoblot signals were developed using SuperSignal West Pico Chemiluminescent Substrate (Pierce, Rockford, Ill., USA) and quantified by a Luminescence Imager or exposed to X-ray films.

[5] = target: T1, β2ARt (Homo sapiens, UniProt P07550); test: Immunoblot of agonist-induced β2AR degradation in 293β2AR* / β2ARt cells; assay type: cell-based
T1 construct: a distally truncated form (after residue 385) of β2AR (β2ARt); expressed in transfected cells; host or cells: HEK293 (293.β2AR*)
Procedure: (§1) β2AR ubiquitination and degradation assays. Cells expressing […] or β2ARt were subjected to 10 μM ISO (Sigma) stimulation, lysed in 0.5% NP-40 lysis buffer and immunoblotted with anti-FLAG-HRP (Sigma). For β2AR ubiquitination, β2ARt or wt-β2AR expressing cells were first incubated with 10 μM alprenolol antagonist (Sigma) for 15 min (to reduce constitutive background ubiquitination), stimulated with 10 μM ISO and lysed in buffer supplemented with 10 mM N-ethylmaleimide (NEM; Sigma) to inhibit deubiquitinase activity. Anti-FLAG EZview beads (Sigma) used for the IP were subjected to three 10 min washes with lysis buffer and resuspended in 50 μl 2βLDS sample buffer (Invitrogen) containing 10% β-mercaptoethanol (Sigma) and analyzed by immunoblotting.

[6] = target: T2, wild-type β2AR (Homo sapiens, UniProt P07550); test: Immunoblot of agonist-induced degradation of wild-type β2AR; assay type: cell-based; conditions: siRNA-transfected cells
T2 construct: expressed in transfected cells; host or cells: HEK293 (293.β2AR^WT)
Procedure: β2AR ubiquitination and degradation assays. Cells expressing PAR or β2ARt were subjected to 10 μM ISO (Sigma) stimulation, lysed in 0.5% NP-40 lysis buffer and immunoblotted with anti-FLAG-HRP (Sigma). For β2AR ubiquitination, β2ARt or wt-β2AR expressing cells were first incubated with 10 μM alprenolol antagonist (Sigma) for 15 min (to reduce constitutive background ubiquitination), stimulated with 10 μM ISO and lysed in buffer supplemented with 10 mM N-ethylmaleimide (NEM; Sigma) to inhibit deubiquitinase activity. Anti-FLAG EZview beads (Sigma) used for the IP were subjected to three 10 min washes with lysis buffer and resuspended in 50 μl 2βLDS sample buffer (Invitrogen) containing 10% β-mercaptoethanol (Sigma) and analyzed by immunoblotting.

[7] = target: T1, β2ARt; test: β2AR ubiquitination assay, β2ARt cells; assay type: cell-based; conditions: ISO stimulation
Procedure: as §1

[8] = target: T2, wild-type β2AR; test: β2AR ubiquitination assay, wild-type β2AR cells; assay type: cell-based; conditions: ISO stimulation
Procedure: as §1

[9] = tested on: ARRDC3; test: ARRDC3 protein knockdown by siRNA; assay type: cell-based, human
[10] = target: T3, NEDD4/β2AR (Homo sapiens, UniProt P07550); test: IP assay of NEDD4/β2AR association in β2ARt-expressing cells; assay type: cell-based; conditions: presence or absence of ISO stimulation
T3 construct: a distally truncated form (after residue 385) of β2AR (β2ARt); expressed in transfected cells; host or cells: HEK293 cells stably expressing FLAG-β2ARt
Procedure: FIGS. 10A-10B show ARRDC3 is an essential adaptor for β2AR ubiquitination. […] Cells stably expressing FLAG-β2ARt were transfected with siRNAs targeting nothing (scrambled), ARRDC3, or β-arrestin-2 and then subjected to a treatment with vehicle or ISO. Anti-FLAG immunoprecipitates from the corresponding lysates and whole cell extracts (WCE) were analyzed by immunoblotting with the indicated antibodies. FIG. 10B is a schematic model of ARRDC3 functioning as an adaptor for β2AR ubiquitination.
Co-immunoprecipitations (co-IP). 293T cells were transfected using Fugene 6 (Roche) or Turbofect (Fermentas). 48 h later, cells were lysed, pre-cleared with protein A agarose, and HA- or FLAG-tagged proteins were IP-ed using anti-HA EZview or anti-FLAG EZview beads. Washed beads were resuspended in sample buffer and analyzed by immunoblotting. Where noted, cross-linking was achieved by incubation for 40 min with 2 mM crosslinker dithio-bismaleimidoethane (DTME; Pierce) in PBS containing 10 mM Hepes (pH 7.5), as previously described (Shenoy et al, 2008) with minor modifications. IP complexes were washed three times consecutively in lysis, high salt, and low salt buffers then resuspended in sample buffer before immunoblotting.

[11] = tested on: latrophilin 2; test: Quantitative real-time PCR of latrophilin 2 expression; assay type: cell-based, human; conditions: vs NT siRNA
Source text: FIG. 11A-11C show inhibition of an EST RNA (AA496068) increases latrophilin 2 expression and decreases β2-AR degradation. FIG. 11A show the genomic locus that is targeted by AA496068 EST shRNA (SEQ ID NO: 2). The shRNA corresponds to sequences in an EST AA496068, which is about 150 kb upstream of the latrophilin 2 gene, and binding of this shRNA […] (SEQ ID NO: 2) activates latrophilin 2 and decreases β2-AR degradation. Thus SEQ ID NO: 2 serves as an activator or agonist of lactrophinin 2. The whole region covering the EST and latrophilin 2 is also annotated as KIAA0786. […] Cells were then labeled with anti-FLAG-FITC and analyzed by flow cytometry. FIG. 11B are histograms showing the distribution of cells treated with vehicle (upper panel) or ISO (lower panel) are shown above. […] Total RNA was isolated from cells transfected with NT or AA496068 EST siRNAs. Latrophilin 2 and AA496068 EST expression was determined by reverse transcription using random hexamers followed by quantitative real-time PCR.

[12] = tested on: β2AR; test: Immunoblot of exogenously expressed β2AR in 293β2AR cells; assay type: cell-based, human; conditions: at a higher concentration; three days
Source text: Three repeats were done with similar results.

AAEST siRNA: 5′ UAAUAUUUAAUGAGGCGGCCUdTdT (SEQ ID NO: 34) and/or 5′ AGGCCGCCUCAUUAAAUAUUAdTdT (SEQ ID NO: 35) (chain 1 UAAUAUUUAAUGAGGCGGCCUTT; chain 2 AGGCCGCCUCAUUAAAUAUUATT; sugars from the 5' end r21 d2, backbone not given here)
mRNA expression level of β2-adrenergic receptor [1]: did not decrease the mRNA expression level
presence of β2-AR on the cell surface [2]: decreases the presence of β2-AR on the surface
baseline β2AR expression [3]: an increase in baseline β2AR expression
total β2-AR protein expression ([4]; western blot, FIG. 16B): decreased total β2-AR protein expression

ARRDC3 siRNA: siRNA having the sequence GAACUGCUCUUCCCGAAUG (SEQ ID NO: 25) (chemistry not given here)
level of un-degraded receptor after ISO vs scrambled control siRNA ([5]; ISO-induced degradation of β2ARt): about 6 fold
increase in basal level of the receptor ([5]; prior to ISO stimulation): < 2 fold
ISO-induced degradation of wild-type β2AR [6]: blocked
reduction in normalized amount of ubiquitinated β2AR compared to ISO-treated control [7]: −70%
reduction in ubiquitinated β2AR compared to ISO-treated control [8]: −30%
knockdown of ARRDC3 protein expression [9]: > 75%
association of NEDD4 with β2AR [10]: completely abrogated

AA496068 EST siRNAs: siRNA having the sequence UAAUAUUUAAUGAGGCGGCCU (SEQ ID NO: 27) (listed as RNA, chemistry not given here)
latrophilin 2 expression [11]: increases the expression of latrophilin 2

O=C(O)c1ccc2c3c1cccc3c(=O)n1c3ccccc3nc21 [STO-609]
β2AR protein level [12]: increased exogenously expressed β2AR protein
β2AR protein level ([4]; at as low as 2 μM, three days): an increase in β2AR
